Like-named read-outs stand apart in the source and are kept apart here.

Data set [1] concerns Pityrosporum ovalae. Briefly: minimum inhibitory doses (M.I.C.) for Pityrosporum ovalae. In kind it is cell-based. The text has this: (§1) Undecylenamidopropylbetaine (Amphoram®U from CECA S.A.) was compared with piroctone olamine (CFTA) or 1-hydroxy-4-methyl-6-(2,4,4-trimethylpentyl)-2(1H)pyridone; ethanol (1:1) salt (RN=68890-66-4), taken in its commercial form as Octopyrox® (Hoechst), at the minimum inhibitory doses (M.I.C.) for Pityrosporum ovalae, i.e., respectively, 2% and 0.2% beforehand.

Data set [2] deals with dandruff. Briefly: antidandruff efficacy test over 15 days on a Test Panel of 20 individuals. The settings on record: for Area occupied by dandruff, percentage of variations on D15 relative to D1 / Dandruff removal index, percentage of variations on D15 relative to D1: products at their M.I.C. (2% and 0.2%). In kind it is in vivo.
Description: as §1

The nature of data set [3]: sebumetry index measured with the Courage-Khazka sebumeter, Test Panel of 20 individuals. The settings on record: 15 days.
For data set [4] the following is noted: background statement; cited from earlier work.
For data set [5] the following is noted: in vivo.

Regarding `CCO.Cc1cc(CC(C)CC(C)(C)C)n(O)c(=O)c1` (stereo not drawn) [Octopyrox, 1-hydroxy-4-methyl-6-(2,4,4-trimethylpentyl)-2(1H)pyridone; ethanol (1:1) salt], the “minimum inhibitory doses (M.I.C.) for Pityrosporum ovalae” value in data set [1] worked out at 0.2%. In addition, in data set [2], the “state of dandruff (decrease in the area occupied and increase in the dandruff removal index)” value is reported as “remained stable”; the “Area occupied by dandruff, percentage of variations on D15 relative to D1” value is −7%; the “Dandruff removal index, percentage of variations on D15 relative to D1” value is on record as −5%. Further, the “Sebumetry index, percentage of variation on D15 relative to D1” value in data set [3] is recorded as −4%.
With zinc pyrithione, in data set [4], the solubility in water result was “water-insoluble”.
As for `CC(C)(C)C(=O)C(Oc1ccc(Cl)cc1)n1ccnc1` (stereo not drawn) [climbazole], in data set [4], the solubility in water result is on record as “water-insoluble”.
Turning to “N-(carboxymethyl)-N,N-dimethyl-3-[(1-oxoundecenyl)amino]-1-propanaminium hydroxide [Amphoram U]”, the “minimum inhibitory doses (M.I.C.) for Pityrosporum ovalae” value in data set [1] is listed as 2%. Besides, in data set [2], the “state of dandruff (decrease in the area occupied and increase in the dandruff removal index)” value was 30 to 40%; the “Area occupied by dandruff, percentage of variations on D15 relative to D1” value was −29%; the “Dandruff removal index, percentage of variations on D15 relative to D1” value is recorded as −36%. Also, the “Sebumetry index, percentage of variation on D15 relative to D1” value in data set [5] is −7%.

Values taken from patent US6410593B1, “Antidandruff compositions” (priority 1998, dated 2002).
